Laboratory results reported in BindingDB's records for doi:10.7270/Q2PK0DMQ (The Scripps Research Institute Molecular Screening Center, 2010).

Target: Protein-arginine deiminase type-4 (Homo sapiens, UniProt Q9UM07)
Test: IC50 against protein arginine deiminase 4 – biochemical, fluorescence readout, dose response (AID 492970)

Protein-arginine deiminase type-4, sequence (Q9UM07 whole entry): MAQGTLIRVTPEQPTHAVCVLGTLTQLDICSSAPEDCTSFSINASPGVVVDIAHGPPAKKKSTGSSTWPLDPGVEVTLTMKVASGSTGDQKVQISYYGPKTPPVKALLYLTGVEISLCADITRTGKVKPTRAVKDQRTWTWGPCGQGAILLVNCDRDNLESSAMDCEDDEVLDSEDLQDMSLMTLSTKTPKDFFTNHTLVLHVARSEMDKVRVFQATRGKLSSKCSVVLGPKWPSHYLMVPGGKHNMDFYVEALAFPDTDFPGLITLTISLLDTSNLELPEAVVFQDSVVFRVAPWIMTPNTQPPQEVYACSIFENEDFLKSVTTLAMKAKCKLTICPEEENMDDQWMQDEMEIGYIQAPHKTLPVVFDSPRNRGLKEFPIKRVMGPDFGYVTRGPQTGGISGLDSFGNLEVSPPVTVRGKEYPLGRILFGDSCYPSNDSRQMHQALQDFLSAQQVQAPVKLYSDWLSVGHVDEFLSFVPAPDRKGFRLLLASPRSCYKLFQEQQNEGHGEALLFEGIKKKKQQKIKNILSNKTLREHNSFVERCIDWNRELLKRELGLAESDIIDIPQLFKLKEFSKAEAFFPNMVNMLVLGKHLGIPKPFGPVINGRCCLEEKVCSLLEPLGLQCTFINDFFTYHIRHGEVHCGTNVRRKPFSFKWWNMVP

Question: Which IC50 does the source give for `O=C1NCC2=Nc3ccccc3NC(c3ccccc3)C12` (stereo unspecified) [MLS000106925] here?
Answer: The IC50 was 100 µM.
